Entries after “also recorded” stand apart in the source; their conditions may differ.
What was measured:
Ramos cells = assay: Cytotoxicity against Ramos cells; type: cell-based; conditions: Homo sapiens, read-out: EC50 in causing death of Ramos cells
Description: The compounds described herein can be tested for activity against F1F0-ATPase by measuring ATP synthesis and ATP hydrolysis. In addition, the compounds described herein can be evaluated for cytotoxicity against Ramos cells. Inhibition of ATP synthesis and hydrolysis by the F1F0-ATPase and cytotoxicity in Ramos cells can be measured as described in K. M. Johnson et al. in Chemistry & Biology (2005) Vol. 12, pp. 485-496.

[1] = test system: Human Skin Organ Cultures; assay: Toxicity (epidermal necrosis) in human skin organ cultures; type: cell-based; conditions: necrosis on 0 to 4+ scale, scores ≦1 normal, 8 days organ culture, n=6
Description: (§1) Replicate 6-mm punch biopsies of full-thickness psoriatic plaque skin were obtained from human skin donors with psoriasis. These biopsies were used in the transplant studies. Six-mm punch biopsies of sun-protected (hip) skin from non-psoriatic donors were obtained as controls. In addition, replicate 2-mm full-thickness punch biopsies of sun-protected hip skin were obtained from normal donors for use in organ culture studies.
(§2) Immediately upon biopsy, the replicate 2-mm punch biopsies (non-psoriatic skin only) were immersed in culture medium consisting of Keratinocyte Basal Medium (KBM) (Lonza, Walkersville, Md.). KBM is a low-Ca^2+, serum-free modification of MCDB-153 medium. It was supplemented with CaCl2 to bring the final Ca^2+ concentration to 1.4 mM. Biopsies were incubated in wells of a 24-well dish containing 400 μl of Ca^2+-supplemented KBM with or without additional treatments (RA and/or Compound H). Cultures were incubated at 37° C. in an atmosphere of 95% air and 5% CO2. Other than to maintain the tissue in a minimal volume of medium, nothing further was done to ensure a strict air-liquid interface. Incubation was for 8 days, with change of medium and fresh treatments provided every second day. At the end of the incubation period, tissue was fixed in 10% buffered formalin and examined histologically after staining with hematoxylin and eosin. Routinely, 3-6 tissue sections were prepared from each block. Epidermal thickness measurements were made at several sites in each tissue section (distance from the dermal-epidermal juncture to the top of the viable portion of the epithelium). The organ culture procedure employed here has been described in the past (Varani et al. (1993) Amer. J. Pathol. 142:189-198; and Varani et al., (1994) J. Clin. Invest. 94:1747-1753). In order to evaluate the toxicity of compound H, tissue was examined histologically and necrosis was assessed on a 0 to 4+ scale, with 0 indicating no change from control and 4+ indicating complete necrosis of the epidermis (n=6). Scores ≦1 were taken as normal.

[2] = test system: RA-induced epidermal hyperplasia; assay: Inhibition of RA-induced epidermal hyperplasia in human skin organ cultures; type: cell-based; conditions: reduction in epidermal thickness vs RA alone, n=3
Description: as §1, §2
The average epidermal thickness in the absence of RA was 70-90 μm, while the average epidermal thickness was 275 μm in cells exposed to RA.

human keratinocytes (KC) = assay: Keratinocyte proliferation assay; type: cell-based; conditions: Homo sapiens, Keratinocyte; for inhibition at 0.05 µM / inhibition at 0.1 µM / inhibition at 0.5 µM / inhibition at 1 µM / inhibition at 5 µM / inhibition at 10 µM: 48 h, KC, day 2, read-out: Percent Inhibition of Cells Per Concentration of Test Compound
Experimental: Epidermal keratinocytes were isolated from fresh tissue biopsies as described previously (Varani et al., (1994) J. Clin. Invest. 94:1747-1753). Primary and early passage cells were maintained in Keratinocyte Growth Medium (KGM) (Lonza). KGM contains the same basal medium as KBM but is further supplemented with a mixture of growth factors including 0.1 ng per mL EGF, 0.5 μg per mL insulin, and 0.4% bovine pituitary extract. In addition to using low-passage keratinocytes, we also used the HaCat line of immortalized human epidermal keratinocytes in some experiments. The immortalized keratinocytes were handled exactly as low-passage keratinocytes.
(§3) Keratinocyte proliferation was assessed by seeding 4×10^4 cells per well in a 24-well plate using KGM as culture medium. After the cells had attached (overnight), they were washed and triplicate samples were harvested for zero-time counts. DMSO served as a negative control. Proliferation was measured on day 2 by releasing the cells with trypsin/EDTA and enumerating them using a particle counter (Coulter Electronics, Hialeah, Fla.). Fibroblast proliferation studies were conducted in a similar manner except that […] was used as culture medium.
(§4) KC refers to human keratinocytes. HFF refers to human foreskin fibroblasts. The cLogP values were calculated using ChemDraw™ (CambridgeSoft).

[3] = test system: human foreskin fibroblasts (HFF); assay: Fibroblast proliferation assay; type: cell-based; conditions: Homo sapiens; for inhibition at 1 µM / inhibition at 0.05 µM / inhibition at 0.1 µM / inhibition at 0.5 µM / inhibition at 5 µM / inhibition at 10 µM: 48 h, HFF, day 2, read-out: Percent Inhibition of Cells Per Concentration of Test Compound
Experimental: Fibroblasts obtained from the same tissue were grown in monolayer culture using Dulbecco's modified minimal essential medium supplemented with nonessential amino acids and 10% fetal bovine serum (DMEM-FBS) as culture medium. Both keratinocytes and fibroblasts were maintained at 37° C. in an atmosphere of 95% air and 5% CO2. Cells were subcultured by exposure to trypsin/ethylenediamine tetraacetic acid (EDTA) and used at passage 2-4.
as §3, §4

Compound	inhibition at 0.05 µM (human keratinocytes (KC)) [%]	inhibition at 0.1 µM (human keratinocytes (KC)) [%]	inhibition at 0.5 µM (human keratinocytes (KC)) [%]	inhibition at 1 µM (human keratinocytes (KC)) [%]	inhibition at 5 µM (human keratinocytes (KC)) [%]	inhibition at 10 µM (human keratinocytes (KC)) [%]	inhibition at 1 µM [3] [%]	inhibition at 0.05 µM ([3]; Fibroblast) [%]	inhibition at 0.1 µM ([3]; Fibroblast) [%]	inhibition at 0.5 µM ([3]; Fibroblast) [%]	inhibition at 5 µM ([3]; Fibroblast) [%]	inhibition at 10 µM ([3]; Fibroblast) [%]	also measured
Cc1ccccc1CC1N=C(c2ccc(F)cc2)c2cc(Cl)ccc2NC1=O (centres unmarked) [7-Chloro-5-(4-fluorophenyl)-3-(2-methylbenzyl)-1H-benzo[e][1,4]diazepin-2(3H)-one]													EC50 (Ramos cells): 7900 nM
Cc1cccc(C)c1CC1N=C(c2ccc(O)cc2)c2cc(Cl)ccc2N(C)C1=O (centres unmarked) [Compound 1, (Z)-7-chloro-3-(2,6-dimethylbenzyl)-5-(4-hydroxyphenyl)-1-methyl-1H-benzo[e][1,4]diazepin-2(3H)-one]	< 20	< 20	< 20	≥ 20	≥ 90	≥ 90	< 20	< 20	< 20	< 20	≥ 90	≥ 90	Toxicity ([1]; 0.5 μM compound H, listed as Compound H): no detectable toxicity; also recorded: None detected; Toxicity ([1]; 1.0 μM compound H, listed as Compound H): no detectable toxicity; also recorded: None detected; Toxicity ([1]; 2.0 μM compound H, listed as Compound H): 2.0 + 0.5; Toxicity ([1]; 2.0 μM compound H, listed as compound H): Slight toxicity; Percent Reduction in Retinoid-Induced Hyperplasia (%) ([2]; 0.5 μM compound H): 40 + 10%; Percent Reduction in Retinoid-Induced Hyperplasia (%) ([2]; 1.0 μM compound H): 48 + 15%; Percent Reduction in Retinoid-Induced Hyperplasia (%) ([2]; 2.0 μM compound H): >95%; EC50 (human keratinocytes (KC); based on the data from the cell proliferation assays, read-out: EC50 against proliferation of human keratinocyte cells): 700 ± 100 nM; EC50 ([3]; Fibroblast, based on the data from the cell proliferation assays, read-out: EC50 against proliferation of human foreskin fibroblasts): 1400 ± 300 nM
CCc1ccc(CC2N=C(c3ccc(F)cc3)c3cc(Cl)ccc3NC2=O)cc1CC (centres unmarked) [Compound 11, (Z)-7-Chloro-3-(3,4-diethylbenzyl)-5-(4-fluorophenyl)-1H-benzo[e][1,4]diazepin-2(3H)-one]	< 20	< 20	< 20	< 20	≥ 90	≥ 90	< 20	< 20	< 20	< 20	< 20	≥ 90	melting point: 88 to 90 °C
